Patent US20240002416A1 (Rheinische-Friedrich-Wilhelms-Universität Bonn, priority 2020, published 2024)

Assays:
human MRGPRX4-83L [1] = biological target: T1, human MRGPRX4-83L (Homo sapiens, UniProt Q96LA9); assay: β-arrestin assay (CHO β-arrestin ARMS1-ProLink 2 human MRGPRX4 83L); format: cell-based; conditions: for Emax: efficacy based on maximal effect of 100 nM B-16 (set as 100%), read-out: Emax; for EC50: β-arrestin recruitment, CHO cells, MRGPRX4-83L, read-out: EC50 ± SEM; for IC50: inhibition of the effect of 2.6 μM B-16
T1 construct: host or cells: CHO β-arrestin cells
Method: (§1) For β-arrestin recruitment assays, recombinant Chinese hamster ovary (CHO) cells expressing the human MRGPRX4 were used (DiscoverX/Eurofins) which allowed to measure β-galactosidase complementation upon β-arrestin recruitment. For calcium mobilization assays, recombinant astrocytes expressing MRGPX4-83L, or LN229 glioblastoma cells natively expressing the MRGPRX4-83S, were used.
(§2) The assays were performed as previously described for other rhodopsin-like GPCRs (Müller, C.E.; 8-Benzamidochromen-4-one-2-carboxylic acids: potent and selective agonists for the orphan G protein-coupled receptor GPR35. J. Med. Chem. 2013, 56:5182-97; Müller, C.E. Molecular Recognition of Agonists and Antagonists by the Nucleotide-Activated G Protein-Coupled P2Y2 Receptor. J. Med. Chem. 2017, 60:8425-8440).

human MRGPRX4-83L [2] = biological target: T1, human MRGPRX4-83L; assay: Calcium assay (human MRGPRX4 83L), recombinant astrocytes; format: cell-based; conditions: for EC50: calcium mobilization, MRGPRX4-83L, read-out: EC50 ± SEM; for Emax: efficacy based on maximal effect of 1 μM B-16 (set as 100%), read-out: Emax
Method: as §1, §2

MRGPRX4-83S [3] = biological target: T2, MRGPRX4-83S (Homo sapiens, UniProt Q96LA9, L83S); assay: Calcium assay (human glioblastoma LN229 cells expressing the MRGPRX4-83S); format: cell-based; parameters: LN229 glioblastoma cells natively expressing the MRGPRX4-83S; endogenous in cells; host or cells: LN229 human glioblastoma cells; conditions: Table 2; for EC50: calcium mobilization, LN229 cells, MRGPRX4-83S, read-out: EC50 ± SEM
Method: as §1, §2

MRGPRX4-83S [4] = biological target: T2, MRGPRX4-83S; assay: β-arrestin assay (CHO β-arrestin human MRGPRX4-83S); format: cell-based; parameters: host or cells: CHO β-arrestin cells; conditions: for EC50 / Emax: Table 2; for EC50: β-arrestin recruitment, CHO cells, MRGPRX4-83S, read-out: EC50 ± SEM; for Emax: efficacy based on 100 nM B-16 (set as 100%), read-out: Emax
Method: as §1, §2

[5] = Table 1, means of 3-4 experiments

T1 sequence (Q96LA9 whole entry): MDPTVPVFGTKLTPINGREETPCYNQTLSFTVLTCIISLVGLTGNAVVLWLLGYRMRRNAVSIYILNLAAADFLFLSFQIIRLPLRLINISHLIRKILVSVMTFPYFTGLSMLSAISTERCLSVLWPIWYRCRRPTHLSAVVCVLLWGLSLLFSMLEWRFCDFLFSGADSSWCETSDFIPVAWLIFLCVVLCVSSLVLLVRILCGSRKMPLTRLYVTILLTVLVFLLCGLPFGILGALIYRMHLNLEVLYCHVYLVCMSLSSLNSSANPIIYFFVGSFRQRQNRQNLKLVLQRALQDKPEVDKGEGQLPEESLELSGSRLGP
T2 sequence (Q96LA9 whole entry L83S): as the sequence (Q96LA9 whole entry) above, with L83S counted along it

Row | EC50 (human MRGPRX4-83L [1]; [5]) | EC50 (human MRGPRX4-83L [2]; Table 1) | Emax (human MRGPRX4-83L [2]; Table 1) | melting point | Emax (human MRGPRX4-83L [1]; Table 4) | EC50 (human MRGPRX4-83L [1]; Table 4) | EC50 (human MRGPRX4-83L [2]; Table 4) | Emax (human MRGPRX4-83L [2]; Table 4) | SMILES | further results
1 | 25.9 ± 7.9 nM | 4.26 ± 0.56 nM | 115% | 192 to 195 °C |  |  |  |  | C#CCn1c(=O)c2c(nc(CCc3ccccc3Br)n2CC)n(CCCCP(=O)(O)O)c1=O [B-19, (4-(8-(2-Bromophenethyl)-7-ethyl-2,6-dioxo-1-(prop-2-yn-1-yl)-1,2,6,7-tetrahydro-3H-purin-3-yl)butyl)phosphonic acid] | Emax (human MRGPRX4-83L [1]; Table 1): 144%
2 | 32.9 ± 7.5 nM | 1.86 ± 0.45 nM | 103% | 157 to 160 °C |  |  |  |  | C#CCn1c(=O)c2c(nc(CCc3ccccc3Br)n2CCO)n(CCCCP(=O)(O)O)c1=O [B-20, (4-(8-(2-Bromophenethyl)-7-(2-hydroxyethyl)-2,6-dioxo-1-(prop-2-yn-1-yl)-1,2,6,7-tetrahydro-3H-purin-3-yl)butyl)phosphonic acid] | Emax (human MRGPRX4-83L [1]; Table 1): 124%
3 | 89.8 ± 20.9 nM | 2.02 ± 0.62 nM | 109% | 181 to 184 °C |  |  |  |  | C#CCn1c(=O)c2c(nc(CCc3ccccc3Br)n2CC2CC2)n(CCCCP(=O)(O)O)c1=O [B-21, (4-(8-(2-Bromophenethyl)-7-(cyclopropylmethyl)-2,6-dioxo-1-(prop-2-yn-1-yl)-1,2,6,7-tetrahydro-3H-purin-3-yl)butyl)phosphonic acid] | Emax (human MRGPRX4-83L [1]; Table 1): 163%
4 | 208 ± 49 nM | 17.8 ± 6.2 nM | 119% | 178 to 181 °C |  |  |  |  | C#CCn1c(=O)c2c(nc(CCc3ccccc3Br)n2CCC)n(CCCCP(=O)(O)O)c1=O [B-22, (4-(8-(2-Bromophenethyl)-2,6-dioxo-1-(prop-2-yn-1-yl)-7-propyl-1,2,6,7-tetrahydro-3H-purin-3-yl)butyl)phosphonic acid] | Emax (human MRGPRX4-83L [1]; Table 1): 176%
5 | 59.9 ± 12.8 nM | 5.03 ± 1.59 nM | 103% | 126 to 129 °C |  |  |  |  | C#CCn1c(=O)c2c(nc(CCc3ccccc3Br)n2Cc2ccccc2)n(CCCCP(=O)(O)O)c1=O [B-23, (4-(7-Benzyl-8-(2-bromophenethyl)-2,6-dioxo-1-(prop-2-yn-1-yl)-1,2,6,7-tetrahydro-3H-purin-3-yl)butyl)phosphonic acid] | Emax (human MRGPRX4-83L [1]; Table 1): 164%
6 |  |  |  | 239 to 241 °C | 98% | 8190 ± 1810 nM | 1420 ± 290 nM | 100% | C#CCn1c(=O)c2[nH]c(CCc3ccccc3F)nc2n(CCCCP(=O)(O)O)c1=O [B-24, (4-(8-(2-Fluorophenethyl)-2,6-dioxo-1-(prop-2-yn-1-yl)-1,2,6,7-tetrahydro-3H-purin-3-yl)butyl) phosphonic acid] | 
7 |  |  |  | 227 to 229 °C | 96% | 381 ± 112 nM | 43.1 ± 9.4 nM | 103% | C#CCn1c(=O)c2[nH]c(CCc3ccccc3I)nc2n(CCCCP(=O)(O)O)c1=O [B-25, (4-(8-(2-Iodophenethyl)-2,6-dioxo-1-(prop-2-yn-1-yl)-1,2,6,7-tetrahydro-3H-purin-3-yl)butyl) phosphonic acid] | 
8 |  |  |  | 206 to 208 °C | 70% | 2740 ± 580 nM | 187 ± 39 nM | 79% | C#CCn1c(=O)c2nc(CCc3ccc(Br)cc3)[nH]c2n(CCCCP(=O)(O)O)c1=O [B-26, (4-(8-(4-Bromophenethyl)-2,6-dioxo-1-(prop-2-yn-1-yl)-1,2,6,9-tetrahydro-3H-purin-3-yl)butyl) phosphonic acid] | 
9 |  |  |  | 227 to 229 °C | 100% | 2440 ± 750 nM | 134 ± 13 nM | 45% | C#CCn1c(=O)c2c(nc(CCc3ccc(Br)cc3)n2C)n(CCCCP(=O)(O)O)c1=O [B-29, (4-(8-(4-Bromophenethyl)-7-methyl-2,6-dioxo-1-(prop-2-yn-1-yl)-1,2,6,7-tetrahydro-3H-purin-3-yl)butyl)phosphonic acid] | 
10 |  |  |  | 197 to 199 °C | 96% | 262 ± 97 nM | 15.5 ± 12.5 nM | 97% | C#CCn1c(=O)c2c(nc(CCc3ccccc3F)n2CC)n(CCCCP(=O)(O)O)c1=O [B-30, (4-(7-Ethyl-8-(2-fluorophenethyl)-2,6-dioxo-1-(prop-2-yn-1-yl)-1,2,6,7-tetrahydro-3H-purin-3-yl)butyl)phosphonic acid] | 
11 |  |  |  | 169 to 171 °C | 84% | 521 ± 142 nM | 306 ± 111 nM | 41% | C#CCn1c(=O)c2c(nc(CCc3ccc(Br)cc3)n2CC)n(CCCCP(=O)(O)O)c1=O [B-35, (4-(8-(4-Bromophenethyl)-7-ethyl-2,6-dioxo-1-(prop-2-yn-1-yl)-1,2,6,7-tetrahydro-3H-purin-3-yl)butyl)phosphonic acid] | 
12 |  |  |  | 137 to 139 °C | 87% | 169 ± 23 nM | 89.2 ± 25.5 nM | 84% | C#CCn1c(=O)c2c(nc(CCc3ccccc3Br)n2CC2CCCC2)n(CCCCP(=O)(O)O)c1=O [B-37, (4-(8-(2-Bromophenethyl)-7-(cyclopentylmethyl)-2,6-dioxo-1-(prop-2-yn-1-yl)-1,2,6,7-tetrahydro-3H-purin-3-yl)butyl)phosphonic acid] | 
13 |  |  |  | 123 to 125 °C | 97% | 6.85 ± 7.18 nM | 1.16 ± 0.26 nM | 118% | C#CCn1c(=O)c2c(nc(CCc3ccccc3I)n2C(C)C)n(CCCCP(=O)(O)O)c1=O [B-47, (4-(8-(2-Iodophenethyl)-7-isopropyl-2,6-dioxo-1-(prop-2-yn-1-yl)-1,2,6,7-tetrahydro-3H-purin-3-yl)butyl)phosphonic acid] | 
14 |  |  |  | 219 to 221 °C | 93% | 1890 ± 280 nM | 604 ± 275 nM | 61% | C#CCn1c(=O)c2[nH]c(CCc3ccccc3Br)nc2n(CCCCCP(=O)(O)O)c1=O [B-52, (5-(8-(2-Bromophenethyl)-2,6-dioxo-1-(prop-2-yn-1-yl)-1,2,6,7-tetrahydro-3H-purin-3-yl)pentyl)phosphonic acid] | 
15 |  |  |  | 138 to 140 °C |  |  |  |  | C#CCn1c(=O)c2c(nc(Cc3cccc4ccccc34)n2CC)n(CCCCP(=O)(O)O)c1=O [B-58, (4-(7-Ethyl-8-(naphthalen-1-ylmethyl)-2,6-dioxo-1-(prop-2-yn-1-yl)-1,2,6,7-tetrahydro-3H-purin-3-yl)butyl)phosphonic acid] | 
16 | > 10000 nM | 2500 ± 730 nM | 113% |  |  |  |  |  | CCCn1c(=O)c2c(nc(CCc3cccc(OC)c3)n2C)n(CCCOP(=O)(O)O)c1=O [H-2, 3-(8-(3-Methoxyphenethyl)-7-methyl-2,6-dioxo-1-propyl-1,2,6,7-tetrahydro-3H-purin-3-yl)propyl dihydrogen phosphate, reference compound] | IC50 (human MRGPRX4-83L [1]; Table 1): > 10 µM; Emax (MRGPRX4-83S [3]; LN-229, efficacy based on 30 μM H-1 (set as 100%), read-out: Emax): 88%; EC50 (MRGPRX4-83S [3]): 801 ± 233 nM; EC50 (MRGPRX4-83S [4]): 0.674 ± 0.05 µM
17 | > 10000 nM | > 10000 nM |  |  |  |  |  |  | C#CCn1c(=O)c2[nH]c(/C=C/c3cccc(OC)c3)nc2n(CCCOP(=O)(O)O)c1=O [H-3, (E)-3-(8-(3-Methoxystyryl)-2,6-dioxo-1-(prop-2-yn-1-yl)-1,2,6,7-tetrahydro-3H-purin-3-yl)propyl dihydrogen phosphate, reference compound] | IC50 (human MRGPRX4-83L [1]; Table 1): > 10 µM; IC50 (human MRGPRX4-83L [2]): > 10 µM; EC50 (MRGPRX4-83S [3]): > 10000 nM; EC50 (MRGPRX4-83S [4]): > 10 µM
18 | > 10000 nM | > 10000 nM |  |  |  |  |  |  | C#CCn1c(=O)c2[nH]c(/C=C/c3cccc(OC)c3)nc2n(CCCCP(=O)(O)O)c1=O [J-1, (E)-(4-(8-(3-Methoxystyryl)-2,6-dioxo-1-(prop-2-yn-1-yl)-1,2,6,7-tetrahydro-3H-purin-3-yl)butyl)phosphonic acid] | EC50 (MRGPRX4-83S [3]): 11.6 ± 1.3 nM; Emax (MRGPRX4-83S [4]): 65%; EC50 (MRGPRX4-83S [4]): 0.2 ± 0.059 µM
19 | > 10000 nM | > 10000 nM |  |  |  |  |  |  | CCCn1c(=O)c2[nH]c(-c3ccccc3)nc2n(CCCCP(=O)(O)O)c1=O [J-3, (4-(2,6-Dioxo-8-phenyl-1-propyl-1,2,6,7-tetrahydro-3H-purin-3-yl)butyl)phosphonic acid] | IC50 (human MRGPRX4-83L [1]; Table 1): > 10 µM; IC50 (human MRGPRX4-83L [2]): > 10 µM; EC50 (MRGPRX4-83S [3]): > 10000 nM; IC50 (MRGPRX4-83S [4]): > 10 µM; EC50 (MRGPRX4-83S [4]): > 10 µM

Row | SMILES | EC50 (human MRGPRX4-83L [1]; [5]) | EC50 (human MRGPRX4-83L [2]; Table 1) | Emax (human MRGPRX4-83L [2]; Table 1) | melting point | Emax (human MRGPRX4-83L [1]; Table 4) | EC50 (human MRGPRX4-83L [1]; Table 4) | EC50 (human MRGPRX4-83L [2]; Table 4) | Emax (human MRGPRX4-83L [2]; Table 4) | further results
20 | CCCn1c(=O)c2[nH]c(C3CCCC3)nc2n(CCCCP(=O)(O)O)c1=O [J-2, (4-(8-Cyclopentyl-2,6-dioxo-1-propyl-1,2,6,7-tetrahydro-3H-purin-3-yl)butyl)phosphonic acid] | > 10000 nM | > 50000 nM |  |  |  |  |  |  | IC50 (human MRGPRX4-83L [1]; Table 1): > 10 µM; IC50 (human MRGPRX4-83L [2]): > 50 µM; EC50 (MRGPRX4-83S [3]): > 10000 nM; Emax (MRGPRX4-83S [4]): 76%; EC50 (MRGPRX4-83S [4]): 6.36 ± 1.63 µM
